Test results published in ChEMBL document CHEMBL1795334, “Towards predictive inhibitor design for the EGFR autophosphorylation activity” (Eur J Med Chem, 2008).

Biological target: Epidermal growth factor receptor (Homo sapiens, UniProt P00533)
Assay: Inhibition autophosphorylation of EGFR in human DiFi cells after 2 hrs by ELISA
Format: cell-based

Sequence of Epidermal growth factor receptor (P00533 whole entry): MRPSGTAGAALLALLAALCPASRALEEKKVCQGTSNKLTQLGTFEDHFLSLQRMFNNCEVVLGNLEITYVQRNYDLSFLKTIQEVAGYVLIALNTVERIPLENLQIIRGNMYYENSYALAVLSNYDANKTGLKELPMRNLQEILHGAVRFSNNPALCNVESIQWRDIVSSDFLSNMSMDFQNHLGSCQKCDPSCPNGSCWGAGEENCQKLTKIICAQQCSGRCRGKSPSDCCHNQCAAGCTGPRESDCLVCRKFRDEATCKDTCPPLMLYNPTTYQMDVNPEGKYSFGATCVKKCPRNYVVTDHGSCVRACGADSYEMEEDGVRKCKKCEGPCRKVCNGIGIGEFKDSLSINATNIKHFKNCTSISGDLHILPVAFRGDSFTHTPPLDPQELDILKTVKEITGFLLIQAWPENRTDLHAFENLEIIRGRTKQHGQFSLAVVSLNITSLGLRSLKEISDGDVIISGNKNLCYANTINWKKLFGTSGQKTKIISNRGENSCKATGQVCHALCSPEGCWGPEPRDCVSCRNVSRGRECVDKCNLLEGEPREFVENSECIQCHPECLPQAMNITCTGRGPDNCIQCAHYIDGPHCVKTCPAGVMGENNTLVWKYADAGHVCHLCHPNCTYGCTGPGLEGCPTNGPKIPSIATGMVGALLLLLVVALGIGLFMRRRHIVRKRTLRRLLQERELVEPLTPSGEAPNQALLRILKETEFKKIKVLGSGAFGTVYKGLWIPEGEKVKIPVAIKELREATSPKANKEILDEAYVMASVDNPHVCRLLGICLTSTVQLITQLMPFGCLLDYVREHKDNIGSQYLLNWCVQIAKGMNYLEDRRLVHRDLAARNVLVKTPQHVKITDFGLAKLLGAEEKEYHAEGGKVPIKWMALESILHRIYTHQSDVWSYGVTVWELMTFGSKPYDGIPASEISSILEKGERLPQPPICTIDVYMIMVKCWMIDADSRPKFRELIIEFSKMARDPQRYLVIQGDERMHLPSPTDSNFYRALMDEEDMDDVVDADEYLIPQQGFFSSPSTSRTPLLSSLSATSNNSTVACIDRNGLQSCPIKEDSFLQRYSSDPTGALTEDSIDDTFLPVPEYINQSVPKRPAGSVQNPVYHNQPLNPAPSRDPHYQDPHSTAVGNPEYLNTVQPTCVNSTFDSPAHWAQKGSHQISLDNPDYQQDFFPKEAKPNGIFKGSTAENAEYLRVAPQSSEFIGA

CCOc1cc2ncc(C#N)c(Nc3cccc(Br)c3)c2cc1OC
IC50: 21.4 µM

COc1cc2ncc(C#N)c(Nc3ccc(O)c(Cl)c3)c2cc1OC
IC50: 9.12 µM

COc1cc2ncc(C#N)c(Nc3ccc(C)c(Br)c3)c2cc1OC
IC50: 1.78 µM

COCOc1cc2ncc(C#N)c(Nc3cccc(Br)c3)c2cc1OCOC
IC50: 6.76 µM

COc1cc2ncc(C#N)c(Nc3ccc(Cl)cc3F)c2cc1OC
IC50: 13.8 µM

COc1cc2ncc(C#N)c(Nc3cccc(Cl)c3)c2cc1OC
IC50: 0.182 µM

COc1cc2ncc(C=O)c(Nc3cccc(Br)c3)c2cc1OC
IC50: 3.39 µM

COc1cc2ncc(C#N)c(Nc3ccc(F)cc3)c2cc1OC
IC50: 47.9 µM

COc1cc2ncc(C#N)c(Nc3cccc(C#N)c3)c2cc1OC
IC50: 14.1 µM

COc1cc2ncc(C#N)c(Nc3cccc(C(N)=O)c3)c2cc1OC
IC50: 7.76 µM

COc1cc2ncc(C#N)c(Nc3ccc(Br)c(C)c3)c2cc1OC
IC50: 0.617 µM

COc1cc2ncc(C#N)c(Nc3cccc(SC)c3)c2cc1OC
IC50: 0.759 µM

CCOc1cc2c(Nc3cccc(Br)c3)c(C#N)cnc2cc1OC
IC50: 33.1 µM

COc1cc2ncc(C#N)c(Nc3cccc(N)c3)c2cc1OC
IC50: 0.813 µM

CCOc1cc2ncc(C#N)c(Nc3cccc(Br)c3)c2cc1OCC
IC50: 0.417 µM

COc1cc2ncc(C#N)c(Nc3cccc(NC(C)=O)c3)c2cc1OC
IC50: 69.2 µM

CCOc1cc2ncc(C#N)c(Nc3ccc(F)c(Cl)c3)c2cc1OCC
IC50: 0.977 µM

COc1cc2ncc(C#N)c(Nc3cccc(O)c3)c2cc1OC
IC50: 6.31 µM

COc1cc2ncc(C(=O)O)c(Nc3cccc(Br)c3)c2cc1OC
IC50: 33.9 µM

COc1cc2ncc(C#N)c(Nc3ccc(C)c(Cl)c3)c2cc1OC
IC50: 1.48 µM

COc1cc2ncc(C#N)c(Nc3cccc(C(C)C)c3)c2cc1OC
IC50: 61.7 µM

COc1cc2ncc(C#N)c(Nc3cccc(Br)c3C)c2cc1OC
IC50: 0.832 µM

COc1cc2c(C#N)cnc(Nc3cccc(Cl)c3)c2cc1OC
IC50: 89.1 µM

COc1cc2ncc(C#N)c(Nc3ccccc3Br)c2cc1OC
IC50: 4.17 µM
